# Measurements taken from PubChem BioAssay (NCI).
#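 GI50 is the concentration that inhibits growth by half. Definition used: TGI = concentration required for complete inhibition of growth.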
# Assays:
# Test in all cases: inhibition of tumour cell growth, NCI panel, 384-well format
# SR leukemia = tested on: SR leukemia
# DU-145 prostate = tested on: DU-145 prostate
# U251 glioblastoma = tested on: U251 glioblastoma
# UACC-257 melanoma = tested on: UACC-257 melanoma
# M14 melanoma = tested on: M14 melanoma
# SK-OV-3 ovarian = tested on: SK-OV-3 ovarian
# MCF7 breast = tested on: MCF7 breast
# SK-MEL-28 melanoma = tested on: SK-MEL-28 melanoma
# A498 renal = tested on: A498 renal
# IGROV1 ovarian = tested on: IGROV1 ovarian
# 786-0 renal = tested on: 786-0 renal
# SW-620 colon = tested on: SW-620 colon
# OVCAR-8 ovarian = tested on: OVCAR-8 ovarian
# NCI-H322M lung = tested on: NCI-H322M lung
# SNB-19 CNS = tested on: SNB-19 CNS
# SF-539 CNS = tested on: SF-539 CNS
# MALME-3M melanoma = tested on: MALME-3M melanoma
# RPMI-8226 leukemia = tested on: RPMI-8226 leukemia
# MDA-MB-231 breast = tested on: MDA-MB-231 breast
# CAKI-1 renal = tested on: CAKI-1 renal
# HCC-2998 colon = tested on: HCC-2998 colon
# SNB-75 CNS = tested on: SNB-75 CNS
# NCI-H23 lung = tested on: NCI-H23 lung
# T-47D breast = tested on: T-47D breast
# HCT-15 colon = tested on: HCT-15 colon
# HL-60(TB) leukemia = tested on: HL-60(TB) leukemia
# SN12C renal = tested on: SN12C renal
# MDA-MB-468 breast = tested on: MDA-MB-468 breast
smiles,measurement,setting,value
CC(C)(C)c1ccc(Oc2ccc(N)cn2)cc1,GI50,SR leukemia,14.3 µM
same,TGI,SR leukemia,32.8 µM
same,GI50,DU-145 prostate,64.3 µM
same,TGI,DU-145 prostate,> 100 µM
same,GI50,U251 glioblastoma,35.8 µM
same,TGI,U251 glioblastoma,> 100 µM
same,GI50,UACC-257 melanoma,36 µM
same,TGI,UACC-257 melanoma,> 100 µM
same,GI50,M14 melanoma,> 100 µM
same,TGI,M14 melanoma,> 100 µM
same,GI50,SK-OV-3 ovarian,> 100 µM
same,TGI,SK-OV-3 ovarian,> 100 µM
same,GI50,MCF7 breast,74.2 µM
same,TGI,MCF7 breast,> 100 µM
same,GI50,SK-MEL-28 melanoma,> 100 µM
same,TGI,SK-MEL-28 melanoma,> 100 µM
same,GI50,A498 renal,46.5 µM
same,TGI,A498 renal,> 100 µM
same,GI50,IGROV1 ovarian,97.3 µM
same,TGI,IGROV1 ovarian,> 100 µM
same,GI50,786-0 renal,24.7 µM
same,TGI,786-0 renal,> 100 µM
same,GI50,SW-620 colon,85.7 µM
same,TGI,SW-620 colon,> 100 µM
same,GI50,OVCAR-8 ovarian,52.1 µM
same,TGI,OVCAR-8 ovarian,> 100 µM
same,GI50,NCI-H322M lung,68.2 µM
same,TGI,NCI-H322M lung,> 100 µM
same,GI50,SNB-19 CNS,> 100 µM
same,TGI,SNB-19 CNS,> 100 µM
same,GI50,SF-539 CNS,43.4 µM
same,TGI,SF-539 CNS,> 100 µM
same,GI50,MALME-3M melanoma,26.9 µM
same,TGI,MALME-3M melanoma,72.9 µM
same,GI50,RPMI-8226 leukemia,0.231 µM
same,TGI,RPMI-8226 leukemia,0.563 µM
same,GI50,MDA-MB-231 breast,28.4 µM
same,TGI,MDA-MB-231 breast,> 100 µM
same,GI50,CAKI-1 renal,24.1 µM
same,TGI,CAKI-1 renal,> 100 µM
same,GI50,HCC-2998 colon,17 µM
same,TGI,HCC-2998 colon,48.6 µM
same,GI50,SNB-75 CNS,22.1 µM
same,TGI,SNB-75 CNS,> 100 µM
same,GI50,NCI-H23 lung,29.1 µM
same,TGI,NCI-H23 lung,85.8 µM
same,GI50,T-47D breast,31.2 µM
same,TGI,T-47D breast,> 100 µM
same,GI50,HCT-15 colon,29.4 µM
same,TGI,HCT-15 colon,> 100 µM
same,GI50,HL-60(TB) leukemia,0.479 µM
same,TGI,HL-60(TB) leukemia,2.82 µM
same,GI50,SN12C renal,57.7 µM
same,TGI,SN12C renal,> 100 µM
same,GI50,MDA-MB-468 breast,21 µM
same,TGI,MDA-MB-468 breast,57 µM
